Results as given in patent US4554367A, “Phosphonium organohalogenostannates-IV” (priority 1982, dated 1985).

Assays:
[1] = tested on: Alternaria alternata; experiment: MIC against fungi, strain J; format: cell-based; details: malt extract agar
Description: (§1) Determination of the minimum inhibitory concentration (MIC) against fungi
(§2) The investigation is carried out in malt extract agar (Merck) by the known agar incorporation test using the fungi
(§3) For inhibition, the various compounds are in each case added in amounts such that concentrations of […] results in the agar. The concentrations (mg/liter) required for inhibition of the growth of the fungi (starting from traces of fungi dripped on) are illustrated in Table D.

[2] = tested on: Penicillium funiculosum; experiment: MIC against fungi, strain I; format: cell-based; details: malt extract agar
Description: as §1, §2
I Penicillium funiculosum
as §3

[3] = tested on: Bacillus subtilis; experiment: MIC against bacteria, strain F; format: cell-based; details: 24 h, 30° C., tested at 100 or 300 mg/liter
Description: (§4) Determination of the minimum inhibitory concentration (MIC) against bacteria
(§5) ONCs (cultures incubated overnight) of the bacteria strains A-F grown in Caso-Peptone broth (Merck) are each diluted […] in saline. An amount of the suspension is introduced into Caso-Peptone broth such that the bacteria are again diluted 1:1,000. The cultures are treated with 100 or 300 mg/liter of the phosphonium stannates shown in Table B. After incubation at 30° C. in a shaking water bath for 24 hours, the cultures are evaluated on the basis of cloudiness. The MIC is the concentration at which the broth is not clouded by bacterial growth.

[4] = tested on: Endomyces geotrichum; experiment: MIC against fungi, strain M; format: cell-based; details: malt extract agar
Description: as §1, §2, §3

[5] = tested on: Artemia salina; experiment: Action against Artemia salina; format: in vivo; parameters: key: 0: nauplii not affected; 1: slight change; 1-2: nauplii affected; 2: nauplii severely affected; 2-3: almost all nauplii dead; 3: all nauplii dead
Text: Determination of the action against Artemia salina
The commercially available eggs are caused to hatch under powerful aeration. […]

[6] = tested on: Alkaligenes denitrificans; experiment: MIC against bacteria, strain E; format: cell-based; details: 24 h, 30° C., tested at 100 or 300 mg/liter
Description: as §4, §5

[7] = tested on: Proteus vulgaris; experiment: MIC against bacteria, strain A; format: cell-based; details: 24 h, 30° C., tested at 100 or 300 mg/liter
Description: as §4, §5

[8] = tested on: Serratia marcenscens; experiment: MIC against bacteria, strain D; format: cell-based; details: 24 h, 30° C., tested at 100 or 300 mg/liter
Description: as §4, §5

[9] = tested on: Cladosporium cladosporioides; experiment: MIC against fungi, strain K; format: cell-based; details: malt extract agar
Description: as §1, §2
K Cladosporium cladosporioides
as §3

[10] = tested on: Pseudomonas aeruginosa; experiment: MIC against bacteria, strain B; format: cell-based; details: 24 h, 30° C., tested at 100 or 300 mg/liter
Description: as §4, §5

[11] = tested on: Candida albicans; experiment: MIC against fungi, strain L; format: cell-based; details: malt extract agar
Description: as §1, §2, §3

[12] = tested on: Aspergillus niger; experiment: MIC against fungi, strain G; format: cell-based; details: malt extract agar
Description: as §1, §2

[13] = tested on: Aureobasidium pullulans; experiment: MIC against fungi, strain N; format: cell-based; details: malt extract agar
Description: as §1, §2
N Aureobasidium pullulans
as §3

[14] = tested on: Enterobacter aerogenes; experiment: MIC against bacteria, strain C; format: cell-based; details: 24 h, 30° C., tested at 100 or 300 mg/liter
Description: as §4, §5

[15] = tested on: Chlorella vulgaris; experiment: Action against Chlorella vulgaris; format: cell-based; parameters: key to Growth in the medium: 1: no growth in the medium, 3 ppm have a growthinhibiting action; key to Growth on the agar: 2: no growth on the agar, 3 ppm have destroyed the algae within 6 hours; details: 3 mg/liter; for Growth on the agar: 6 hours exposure (algae-destruction action); for Growth in the medium: 14 days (inhibition of growth)
Description: Determination of the action against algae
A Chlorella vulgaris culture grown for 14 days in algae nutrient medium is diluted 1:200 in algae nutrient medium. Each of the compounds listed in Table E is then added such that a concentration of 3 mg/liter results. After incubation for 6 hours, 10 μl are in each case withdrawn and dripped onto algae agar in order to determine the destructive action.

[16] = tested on: Aspergillus phoenicia; experiment: MIC against fungi, strain H; format: cell-based; details: malt extract agar
Description: as §1, §2, §3

[17] = tested on: Chaetomium globosum; experiment: MIC against fungi, strain O; format: cell-based; details: malt extract agar
Description: as §1, §2, §3

[18] = tested on: Aureobasidium pullans; experiment: Growth on wood; details: 28° C., 4 weeks
Description: Small wooden blocks of spruce, 7×10×10 mm in size, are dried under a vacuum for 30 minutes. The small blocks are then subjected to impregnation under a vacuum, by being left in 20 ml of distilled water and the biocide under vacuum for 30 minutes, and are then exposed to pressure treatment (2 atmospheres gauge by compressed air) in water for 18 hours. The pieces of wood thus treated are either immediately dried or first subjected to bleaching in running water and then dried.
The small dried pieces of wood are placed on potato glucose agar and the wood and surrounding agar are innoculated with 0.1 ml of a spore suspension of Aureobasidium pullans. After incubation at 28° C. for 4 weeks, the growth is evaluated according to the following plan.
4=No growth on the wood, inhibitory zone up to 2 mm
5=No growth on the wood, inhibitory zone greater than 2 mm

Row | Compound | MIC against fungi [1] [µg/mL] | MIC against fungi [2] [µg/mL] | MIC [3] [µg/mL] | MIC against fungi [4] [µg/mL] | Action against Artemia salina ([5]; 0.25 mg/liter, 6 hours) | Action against Artemia salina ([5]; 0.25 mg/liter, 24 hours) | Action against Artemia salina ([5]; 0.25 mg/liter, 48 hours) | MIC [6] [µg/mL] | MIC [7] [µg/mL] | MIC [8] [µg/mL] | MIC against fungi [9] [µg/mL] | MIC [10] [µg/mL] | MIC against fungi [11] [µg/mL] | MIC against fungi [12] [µg/mL] | MIC against fungi [13] [µg/mL] | MIC [14] [µg/mL] | Growth on the agar [15] | Growth in the medium [15] | MIC against fungi [16] [µg/mL] | MIC against fungi [17] [µg/mL] | also measured
1 | CCCCCCCCCCCCCC[P+](CCCC)(CCCC)CCCC.[CH3][Sn-]([Cl])([Cl])([Cl])[Cl] [Example 22] | 50 | 10 | 100 | 10 | 0 | 1-2 | 2-3 | 100 | 100 | 100 | 10 | 100 | 10 | 50 | 10 | 100 | 2 | 1 | 50 | 10 | Action against Artemia salina ([5]; 0.5 mg/liter, 6 hours): 1-2; Action against Artemia salina ([5]; 0.5 mg/liter, 24 hours): 3; Action against Artemia salina ([5]; 0.5 mg/liter, 48 hours): 3; Action against Artemia salina ([5]; 1 mg/liter, 6 hours): 1-2; Action against Artemia salina ([5]; 1 mg/liter, 24 hours): 3; Action against Artemia salina ([5]; 1 mg/liter, 48 hours): 3; Action against Artemia salina ([5]; 2.5 mg/liter, 6 hours): 1-2; Action against Artemia salina ([5]; 2.5 mg/liter, 24 hours): 3; Action against Artemia salina ([5]; 2.5 mg/liter, 48 hours): 3
2 | CCCCCCCCCCCCCC[P+](CCCC)(CCCC)CCCC.CCC[CH2][Sn-]([Cl])([Cl])([Cl])[Cl] [Example 24] | > 100 | 10 | 100 | 50 | – | – | – | 100 | 100 | 100 | 10 | 100 | 50 | > 100 | 10 | 100 | 2 | 1 | > 100 | 50 | –
3 | CCCCCCCCCCCCCC[P+](CCCC)(CCCC)CCCC.CCCCCCCCCCCCCC[P+](CCCC)(CCCC)CCCC.[CH3][Sn-2]([Cl])([Cl])([Cl])([Cl])[Cl] [Example 23] | 50 | 10 | 100 | 10 | 0 | 1-2 | 2-3 | 100 | 100 | 100 | 10 | 100 | 10 | 50 | 10 | 100 | 2 | 1 | 50 | 10 | Action against Artemia salina ([5]; 0.5 mg/liter, 6 hours): 1-2; Action against Artemia salina ([5]; 0.5 mg/liter, 24 hours): 2-3; Action against Artemia salina ([5]; 0.5 mg/liter, 48 hours): 3; Action against Artemia salina ([5]; 1 mg/liter, 6 hours): 1-2; Action against Artemia salina ([5]; 1 mg/liter, 24 hours): 3; Action against Artemia salina ([5]; 1 mg/liter, 48 hours): 3; Action against Artemia salina ([5]; 2.5 mg/liter, 6 hours): 1-2; Action against Artemia salina ([5]; 2.5 mg/liter, 24 hours): 3; Action against Artemia salina ([5]; 2.5 mg/liter, 48 hours): 3
4 | CCCCCCCCCCCCCC[P+](CCCC)(CCCC)CCCC.CCCCCCCCCCCCCC[P+](CCCC)(CCCC)CCCC.CCC[CH2][Sn-2]([Cl])([Cl])([Cl])([Cl])[Cl] [Example 25] | 100 | 10 | 100 | 10 | – | – | – | 100 | 100 | 100 | 10 | 100 | 50 | 100 | 10 | 100 | 2 | 1 | > 100 | 50 | –
5 | CCCCCCCCCCCCCC[P+](CCCC)(CCCC)CCCC.CCCCCCCCCCCCCC[P+](CCCC)(CCCC)CCCC.[CH3][Sn-2]([CH3])([Cl])([Cl])([Cl])[Cl] [Example 21] | 50 | 10 | 100 | 10 | 1-2 | 3 | 3 | 100 | 100 | 100 | 10 | 100 | 10 | 50 | 10 | 100 | 2 | 1 | 50 | 10 | Action against Artemia salina ([5]; 0.5 mg/liter, 6 hours): 1-2; Action against Artemia salina ([5]; 0.5 mg/liter, 24 hours): 2; Action against Artemia salina ([5]; 0.5 mg/liter, 48 hours): 3; Action against Artemia salina ([5]; 1 mg/liter, 6 hours): 1-2; Action against Artemia salina ([5]; 1 mg/liter, 24 hours): 3; Action against Artemia salina ([5]; 1 mg/liter, 48 hours): 3; Action against Artemia salina ([5]; 2.5 mg/liter, 6 hours): 1-2; Action against Artemia salina ([5]; 2.5 mg/liter, 24 hours): 3; Action against Artemia salina ([5]; 2.5 mg/liter, 48 hours): 3
6 | OC[P+](CO)(CO)CO.[Cl][Sn-]([Cl])([CH]1CCCCC1)([CH]1CCCCC1)[CH]1CCCCC1 [Example 26] | – | – | – | – | – | – | – | – | – | – | – | – | – | – | – | – | – | – | – | – | Growth on wood, leached for 5 days ([18]; 0.01% in H2O): 4 (No growth on the wood, inhibitory zone up to 2 mm); Growth on wood, not leached ([18]; 0.01% in H2O): 5 (No growth on the wood, inhibitory zone greater than 2 mm); Growth on wood, leached for 5 days ([18]; 0.05% in H2O): 5 (No growth on the wood, inhibitory zone greater than 2 mm); Growth on wood, not leached ([18]; 0.05% in H2O): 5 (No growth on the wood, inhibitory zone greater than 2 mm)
7 | CCCC[P+](CCCC)(CCCC)CCCC.CCC[CH2][Sn-]([Cl])([Cl])([CH2]CCC)[CH2]CCC [Example 45] | 10 | 10 | – | 10 | – | – | – | – | – | – | 10 | – | 10 | 10 | 10 | – | 2 | 1 | 10 | 10 | –
